Several values for one entry are separate records, joined by “and”; a condition that tells them apart may be missing. Equal entries are not always repeated.
Tests used:
Hepatocyte = experiment: Cytotoxicity against rat hepatocytes at 10 to 100 uM; type: cell-based
[1] = Antiproliferative activity against rat HSC-T6 cells after 48 hrs by MTT assay; type: functional, cell-based
[2] = Rattus norvegicus, HSC-T6, 48 h

| Compound | Activity (Hepatocyte) | IC50 [1, 2] [µM] | IC50 ([1]; hsc-t6) |
| --- | --- | --- | --- |
| COc1ccc2c(ccc3cc(OC)c(O)c(OC)c32)c1 | Non-toxic | > 100 |  |
| COc1ccc2c(c1)CCc1c(-c3c(O)c(OC)c(OC)c4c3CCc3cc(OC)ccc3-4)c(O)c(OC)c(OC)c1-2 | Non-toxic | 88.2 |  |
| COc1cc(O)c2c(c1)CCc1cccc(O)c1-2 | Non-toxic | > 100 |  |
| COc1ccc2c(ccc3cc(O)c(OC)c(OC)c32)c1O | Non-toxic | 54.1 |  |
| COc1ccc2c(c1O)CCc1cc(O)c(OC)c(OC)c1-2 | Non-toxic | 35.7 |  |
| COc1cc2cc(O)c(O)c(OC)c2c2c(O)cccc12 | Non-toxic | 9 |  |
| COc1ccc2c(c1)CCc1cc(OC)c(O)c(OC)c1-2 | Non-toxic | > 100 |  |
| COc1ccc2c(c1)CCc1cc(O)c(OC)c(OC)c1-2 | Non-toxic | > 100 |  |
| COc1c(O)cc2ccc3cccc(O)c3c2c1OC | Non-toxic | > 100 |  |
| COc1cc2ccc3cccc(O)c3c2c(OC)c1O [BULBOPHYLLANTHRIN] | Non-toxic | 50.9 |  |
| COc1ccc2c(c1)CCc1cc(O)cc(OC)c1-2 [COELONIN] | Non-toxic |  | 13.4 µM and 69.1 µM |
| COC1=CC(=O)c2ccc3cc(OC)cc(O)c3c2C1=O [DENBINOBIN] | Non-toxic | 15.2 |  |
| COc1cc2c(c(O)c1OC)-c1ccc(O)cc1CC2 [EPHEMERANTHOL A] | Non-toxic | 79.2 |  |
| O=C(O[C@@H]1Cc2c(O)cc(O)cc2O[C@@H]1c1cc(O)c(O)c(O)c1)c1cc(O)c(O)c(O)c1 [EPIGALOCATECHIN GALLATE] |  | 9.9 |  |
| COc1c(O)cc2c(c1OC)-c1ccc(O)cc1CC2 [ERIANTHRIDIN] | Non-toxic | 73.2 |  |
| COc1c(O)c(O)cc2ccc3cccc(O)c3c12 [FIMBRIOL B] | Non-toxic | 11 |  |
| COc1cc(O)c2c(c1)CCc1cc(O)ccc1-2 [LUSIANTHRIDIN] | Non-toxic | 61.2 |  |
| COc1c(O)cc2ccc3cc(O)ccc3c2c1OC [NUDOL] | Non-toxic | > 100 |  |
| COc1c(OC)c2cc(O)cc(OC)c2c2c(O)cccc12 [PLICATOL A] | Non-toxic | > 100 |  |

Source: ChEMBL document CHEMBL1141443, “Antifibrotic phenanthrenes of Dendrobium nobile stems” (J Nat Prod, 2007)
